Experimental data taken from ChEMBL document CHEMBL1201862, “PubChem BioAssay data set” (2004).
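Five concentrations, 48 hours, 96-well plates. GI50 is the concentration that inhibits growth by half.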 Activity calls are given as the source filed them. Cut-off read from the data, not from the text of the source: active = GI50 up to about 1.1 µM and inactive = higher.

Key:
Assay in all cases: growth of human tumour cells (NCI), 48 h
A498 = system: A498
DU-145 = system: DU-145
EKVX = system: EKVX
HCT-116 = system: HCT-116
Hs-578T = system: Hs-578T
LOX IMVI = system: LOX IMVI
Malme-3M = system: Malme-3M
NCI-H23 = system: NCI-H23
NCI-H460 = system: NCI-H460
NCI/ADR-RES = system: NCI/ADR-RES
OVCAR-4 = system: OVCAR-4
PC-3 = system: PC-3
SF-295 = system: SF-295
SF-539 = system: SF-539
SK-MEL-2 = system: SK-MEL-2
SN12C = system: SN12C
SNB-19 = system: SNB-19
U-251 = system: U-251
UACC-62 = system: UACC-62
UO-31 = system: UO-31

Measured: GI50

COc1ccc(C[C@@H](CO)NC2=C(C#N)CCC2)cc1
inactive: A498 31.9 µM | DU-145 50.6 µM | EKVX 35.7 µM | HCT-116 38.5 µM | Hs-578T 20 µM | LOX IMVI 23.7 µM | Malme-3M 34.7 µM | NCI-H23 52.4 µM | NCI-H460 64.7 µM | NCI/ADR-RES 28.4 µM | OVCAR-4 32.1 µM | PC-3 32.3 µM | SF-295 29.7 µM | SF-539 26.3 µM | SK-MEL-2 > 100 µM | SN12C > 100 µM | SNB-19 > 100 µM | U-251 > 100 µM | UACC-62 31.5 µM | UO-31 46 µM

CC(=O)Oc1ccc2c(c1)CC[C@@H]1C2[C@@H](O[N+](=O)[O-])C[C@@]2(C)C1CC[C@@H]2O[N+](=O)[O-] (stereo not given in full)
inactive: A498 18.6 µM | DU-145 14.2 µM | EKVX 12.3 µM | HCT-116 10.2 µM | Hs-578T 19.1 µM | LOX IMVI 13.7 µM | Malme-3M 13.7 µM | NCI-H23 12.7 µM | NCI-H460 12.8 µM | NCI/ADR-RES 14.3 µM | OVCAR-4 16.3 µM | PC-3 10.5 µM | SF-295 10.7 µM | SF-539 18.2 µM | SK-MEL-2 15.4 µM | SN12C 15.5 µM | SNB-19 16.9 µM | U-251 14 µM | UACC-62 13.9 µM | UO-31 12.3 µM

O=C([C@H](O)[C@@H](O)c1ccc(Br)cc1)C12CC3CC(CC(C3)C1)C2
inactive: A498 11.6 µM | DU-145 9.68 µM | EKVX 32.4 µM | HCT-116 10.4 µM | Hs-578T > 39.1 µM | LOX IMVI 31.1 µM | Malme-3M 13.9 µM | NCI-H23 8.45 µM | NCI-H460 3.74 µM | NCI/ADR-RES 24.9 µM | OVCAR-4 19.3 µM | PC-3 6.58 µM | SF-295 13 µM | SF-539 8.91 µM | SK-MEL-2 16.3 µM | SN12C 17.9 µM | SNB-19 19.2 µM | U-251 7.18 µM | UACC-62 7.82 µM | UO-31 23.7 µM

Cc1ccc(OC2CC(n3cnc4c(=O)[nH]c(Br)nc43)OC2Oc2ccc(C)cc2)cc1 (stereo not given)
inactive: A498 > 100 µM | DU-145 24.7 µM | EKVX 23.8 µM | HCT-116 29.2 µM | Hs-578T 24.5 µM | LOX IMVI 26.2 µM | Malme-3M 22.9 µM | NCI-H23 26.9 µM | NCI-H460 20.6 µM | NCI/ADR-RES 28.7 µM | OVCAR-4 37 µM | PC-3 22.6 µM | SF-295 21.7 µM | SF-539 20.2 µM | SK-MEL-2 26.8 µM | SN12C 26.2 µM | SNB-19 21.5 µM | U-251 29.1 µM | UACC-62 23.7 µM | UO-31 19.1 µM

CC[C@]12C=CCN3CCC4(c5cc(/N=N/c6ccc([N+](=O)[O-])cc6)c(OC)cc5N(C)[C@H]4[C@@](O)(C(=O)OC)[C@@H]1OC(C)=O)[C@@H]32 (stereo not given in full)
inactive: A498 14.1 µM | DU-145 22.8 µM | EKVX 9.86 µM | HCT-116 10.7 µM | Hs-578T 18.4 µM | LOX IMVI 16.3 µM | Malme-3M 16.1 µM | NCI-H23 10.5 µM | NCI-H460 19.8 µM | NCI/ADR-RES 7.18 µM | OVCAR-4 9.59 µM | PC-3 4.26 µM | SF-295 10.6 µM | SF-539 16.8 µM | SK-MEL-2 13 µM | SN12C 23.8 µM | SNB-19 26.6 µM | U-251 11.2 µM | UACC-62 17.2 µM | UO-31 11.2 µM

Sc1nn2c(COc3cccc(OCc4nnc5sc(S)nn45)c3)nnc2s1
inactive: A498 > 100 µM | DU-145 > 100 µM | EKVX > 100 µM | HCT-116 > 100 µM | Hs-578T > 100 µM | LOX IMVI 34.4 µM | Malme-3M > 100 µM | NCI-H23 > 100 µM | NCI-H460 31.8 µM | NCI/ADR-RES > 100 µM | OVCAR-4 > 100 µM | PC-3 > 100 µM | SF-295 > 100 µM | SF-539 52.1 µM | SK-MEL-2 > 100 µM | SN12C > 100 µM | SNB-19 > 100 µM | U-251 > 100 µM | UACC-62 > 100 µM | UO-31 > 100 µM

COc1ccc(-n2c(=O)[nH]n(C(C)=O)c2=O)cc1
inactive: A498 > 100 µM | DU-145 > 100 µM | EKVX > 100 µM | HCT-116 > 100 µM | Hs-578T > 100 µM | LOX IMVI > 100 µM | Malme-3M > 100 µM | NCI-H23 > 100 µM | NCI-H460 > 100 µM | NCI/ADR-RES > 100 µM | OVCAR-4 > 100 µM | PC-3 > 100 µM | SF-295 > 100 µM | SF-539 > 100 µM | SK-MEL-2 > 100 µM | SN12C > 100 µM | SNB-19 > 100 µM | U-251 > 100 µM | UACC-62 > 100 µM | UO-31 > 100 µM

COc1ccc(C(NCCNC(c2ccc(OC)c(OC)c2)c2cc3c(cc2O)OCO3)c2cc3c(cc2O)OCO3)cc1OC (stereo not given)
inactive: A498 7.45 µM | DU-145 2.8 µM | EKVX 6.22 µM | HCT-116 2.26 µM | Hs-578T 3.24 µM | LOX IMVI 1.8 µM | Malme-3M 4.5 µM | NCI-H23 2.51 µM | NCI-H460 4.35 µM | NCI/ADR-RES 2.13 µM | OVCAR-4 4.83 µM | PC-3 2.47 µM | SF-295 5.32 µM | SF-539 2.27 µM | SK-MEL-2 6.81 µM | SN12C 1.92 µM | SNB-19 4.06 µM | U-251 2.87 µM | UACC-62 2.53 µM | UO-31 2.8 µM

O=C1OCC(CN2CCC(n3c(=O)[nH]c4ccccc43)CC2)=C1c1ccccc1
inactive: A498 23.5 µM | DU-145 24.8 µM | EKVX 25.9 µM | HCT-116 25.5 µM | Hs-578T 30 µM | LOX IMVI 21.4 µM | Malme-3M 22.8 µM | NCI-H23 21.2 µM | NCI-H460 6.78 µM | NCI/ADR-RES 22.5 µM | OVCAR-4 18.7 µM | PC-3 19 µM | SF-295 26.4 µM | SF-539 18.9 µM | SK-MEL-2 19.8 µM | SN12C 22 µM | SNB-19 26.1 µM | U-251 35.5 µM | UACC-62 12.6 µM | UO-31 11.5 µM

COc1cc2c(cc1O)C(c1cc(O)c(O)c(OC)c1)C(O)(C(=O)O)C(CO)C2O (stereo not given)
inactive: A498 > 100 µM | DU-145 > 100 µM | EKVX 20.7 µM | HCT-116 18.3 µM | Hs-578T > 100 µM | LOX IMVI 17.9 µM | Malme-3M > 100 µM | NCI-H23 > 100 µM | NCI-H460 > 100 µM | NCI/ADR-RES > 100 µM | OVCAR-4 > 100 µM | PC-3 > 100 µM | SF-295 > 100 µM | SF-539 > 100 µM | SK-MEL-2 > 100 µM | SN12C 16.4 µM | SNB-19 > 100 µM | U-251 > 100 µM | UACC-62 > 100 µM | UO-31 > 100 µM

Cc1cc(N(CCC#N)CCC#N)ccc1C(=N/NC(=O)c1cc(Cl)ccc1O)/N=N/c1cccc([N+](=O)[O-])c1
inactive: A498 15.5 µM | DU-145 27.2 µM | EKVX 25.1 µM | HCT-116 22.2 µM | Hs-578T 38.9 µM | LOX IMVI 15.2 µM | Malme-3M 34 µM | NCI-H23 22.6 µM | NCI-H460 25 µM | NCI/ADR-RES 23 µM | OVCAR-4 20.4 µM | PC-3 22.1 µM | SF-295 35.9 µM | SF-539 44.5 µM | SK-MEL-2 21.7 µM | SN12C 28.3 µM | SNB-19 26.5 µM | U-251 35.9 µM | UACC-62 14.1 µM | UO-31 17.6 µM

Cc1cc(C)nc(NS(=O)(=O)c2ccc(NC(=O)c3ccc4nc5ccccc5c(Nc5ccc(S(=O)(=O)Nc6nc(C)cc(C)n6)cc5)c4c3)cc2)n1
inactive: A498 > 100 µM | DU-145 > 100 µM | EKVX > 100 µM | HCT-116 57 µM | Hs-578T 69.7 µM | LOX IMVI 19.1 µM | Malme-3M 67.5 µM | NCI-H23 34 µM | NCI-H460 88.5 µM | NCI/ADR-RES > 100 µM | OVCAR-4 68.7 µM | PC-3 59.7 µM | SF-295 > 100 µM | SF-539 88.3 µM | SK-MEL-2 36.2 µM | SN12C 46.5 µM | SNB-19 > 100 µM | U-251 35.3 µM | UACC-62 66.4 µM | UO-31 > 100 µM

CCCCN(Cc1ccccc1)/C(=N/C#N)N(Cc1ccccc1)Cc1ccccc1
inactive: A498 36.6 µM | DU-145 34.7 µM | EKVX 31.3 µM | HCT-116 5.16 µM | Hs-578T 23.4 µM | LOX IMVI 10.9 µM | Malme-3M 8.59 µM | NCI-H23 11.3 µM | NCI-H460 9.84 µM | NCI/ADR-RES 18.7 µM | OVCAR-4 15.8 µM | PC-3 6.71 µM | SF-295 9.95 µM | SF-539 21.9 µM | SK-MEL-2 13.1 µM | SN12C 18.2 µM | SNB-19 20.7 µM | U-251 17.1 µM | UACC-62 16.1 µM | UO-31 14.6 µM
